From US20120301551A1, “COMPOUNDS AND COMPOSITIONS FOR TREATING NEURONAL DEATH OR NEUROLOGICAL DYSFUNCTION” (Neurotech Pharmaceuticals Co., Ltd., priority 2005, published 2012)
Like-named read-outs stand apart in the source and are kept apart here.

Key:
[1] = tested on: mixed cortical cell cultures containing neurons and glia; experiment: Fe2+-induced free radical neurotoxicity in mixed cortical cell cultures (LDH release); assay type: cell-based, mouse; settings: 50 μM FeCl2, neuronal death 24 hr later (LDH), read-out: IC50 (50% protection against Fe^2+-induced free radical neurotoxicity)
Description: Mouse cortical cell cultures (DIV 11-15) were exposed to 50 μM Fe^2+ or 10 mM BSO, alone or with inclusion of 5 mM Li^+. Neuronal death was analyzed 24 hr later by measuring levels of LDH released into the bathing medium, mean±SEM (n=9-12 culture wells per condition).
Mouse cortical cell cultures (DIV 11-15) were exposed to 30 μM Fe^2+ or 10 mM BSO, alone or in the presence of 1 μM 2-hydroxy TTBA, 10-100 μM vitamin E, or 5 mM Li^+.
For mixed neuron-glia culture, mouse cerebral cortices were removed from brains of the 11-15 day-old-fetal mice (E11-15), gently triturated and plated on 24 well plates (2×10^5 cells/plate) precoated with 100 μg/ml poly-D-lysine and 4 pg/ml laminin. Cultures were maintained at 37° C. in a humidified 5% CO2 atmosphere.
After 7-8 days in vitro (DIV 7-8), 10 μM cytosine arabinofuranoside (Ara-C) was included to halt overgrowth of glia. The drug treatment was carried on DIV 11-15 cortical cell culture.
Oxidative stress was induced by exposing mixed cortical cell cultures containing neurons and glia (DIV 11-15) to 50 μM FeCl2, a hydroxyl radical-producing transition metal via a Fenton reaction, or 10 mM DL-buthionine-[S,R]-sulfoximine (BSO), a glutathione depleting agent.

[2] = tested on: cerebral cortical cell; experiment: anti-oxidant effect: neuron protecting effect against Fe+2 (50 uM FeCl2); assay type: cell-based; settings: cerebral cortical cell treated by 50 uM FeCl2
Description: After cerebral cortical cell was treated by 50 uM FeCl2 to induce oxidative stress, the anti-oxidant effects of many compounds were evaluated. Results were shown as IC50 (uM) (Item A of Table 3 below).
(§1) In the Table 3, A, B and C mean neuron protecting effect against Fe^+2, suppressing effect on production of NO and suppressing effect on production of beta-amyloid, respectively. The term “ND” means “Not determined.”

[3] = tested on: BV-2 cell line (production of NO); experiment: anti-inflammatory effect: suppression of LPS-induced production of NO; assay type: cell-based; settings: BV-2 cell line treated by LPS; for IC50: read-out: IC50 (uM) B: suppressing effect on production of NO
Description: After BV-2 cell line was treated by LPS to induce production of NO, the anti-inflammatory effects of many compounds were evaluated. Results were shown as IC50 (uM) (Item B of Table 3 below).
as §1

[4] = tested on: beta-amyloid (Aβ42); experiment: suppression of beta-amyloid (Aβ42) production in CHO cells (ELISA); assay type: cell-based, Chinese hamster
Description: The suppressing effects of many drug candidates on production of beta-amyloid were evaluated in CHO cell line having the increased level of beta-amyloid. Results were shown as IC50 (uM) (Item C of Table 3 below).
as §1
Cells were treated with increasing concentrations of various chemicals in Chinese hamster ovary (CHO) cells stably transfected with human wild APP695 and the PS1ΔExon9, and analyzed Aβ42 levels in culture medium by colorimetric sandwich ELISA kit (BIOSOURCE, Camarillo, Calif.). In CHO cells, IC50 of Chemical—01-08 on Aβ42 lowering effect was 20-100 uM (Table 4).

[5] = Cricetulus griseus, CHO cell line having the increased level of beta-amyloid, read-out: IC50 (uM) C: suppressing effect on production of beta-amyloid
[6] = CHO cell line having the increased level of beta-amyloid
[7] = CHO cell line having the increased level of beta-amyloid, read-out: IC50 (uM) C: suppressing effect on production of beta-amyloid
[8] = Cricetulus griseus, CHO cells stably transfected with human wild APP695 and PS1ΔExon9, culture medium, ELISA, read-out: Aβ42 lowering effect (IC50)

Row | SMILES | IC50 ([2]; Neuron) [µM] | IC50 ([3]; Mus musculus) [µM] | also measured
1 | O=C(O)c1cc(NCc2ccc(Cl)cc2)ccc1O [CBAS] |  |  | IC50 [1]: 0.2 µM
2 | O=C(O)c1cc(NCCc2ccc(C(F)(F)F)cc2)ccc1O [Compound 01] | 0.099 | 24.3 | IC50 [4, 5]: 19.6 µM
3 | O=C(O)c1cc(NCCc2ccccc2)ccc1O [Compound 02] | 1.04 | > 100 | 
4 | O=C(O)c1cc(NCCc2cccc(C(F)(F)F)c2)ccc1O [Compound 04] | 0.08 | 26.1 | 
5 | O=C(O)c1cc(NCCc2cc(F)ccc2F)ccc1O [Compound 06] | 0.27 | 82.2 | 
6 | O=C(O)c1cc(NCCc2cccc(Cl)c2)ccc1O [Compound 08] | 0.23 | 76.5 | 
7 | O=C(O)c1cc(NCCc2ccccc2Br)ccc1O [Compound 09] | 0.14 | 78.8 | 
8 | O=C(O)c1cc(NCCc2cccc(Br)c2)ccc1O [Compound 10] | 0.23 |  | IC50 (uM) B: suppressing effect on production of NO [3]: No
9 | Cc1ccc(CCNc2ccc(O)c(C(=O)O)c2)cc1 [Compound 11] | 0.24 | 23.9 | 
10 | O=C(O)c1cc(NCCc2c(F)cccc2F)ccc1O [Compound 12] | 0.36 | 62.7 | 
11 | COc1ccccc1CCNc1ccc(O)c(C(=O)O)c1 [Compound 13] | 0.27 | 94 | 
12 | COc1cccc(CCNc2ccc(O)c(C(=O)O)c2)c1 [Compound 15] | 0.32 |  | IC50 (uM) B: suppressing effect on production of NO [3]: No
13 | O=C(O)c1cc(NCCc2ccc(F)cc2F)ccc1O [Compound 17] | 0.21 | > 300 | 
14 | O=C(O)c1cc(NCCc2cccc(F)c2)ccc1O [Compound 19] | 0.26 | 82.6 | 
15 | O=C(O)c1cc(NCCc2ccccc2[N+](=O)[O-])ccc1O [Compound 20] | 0.4 | 12.5 | 
16 | O=C(O)c1cc(NCCc2ccc(F)c(F)c2)ccc1O [Compound 21] | 0.32 | 23.7 | IC50 [4, 5]: 68 µM
17 | O=C(O)c1cc(NCCc2cc(F)cc(F)c2)ccc1O [Compound 22] | 0.25 | 135 | 
18 | O=C(O)c1cc(NCCc2cccc(C(F)(F)F)c2F)ccc1O [Compound 26] | 0.13 | 61.7 | IC50 [4, 5]: > 100 µM
19 | O=C(O)c1cc(NCCc2cc(C(F)(F)F)cc(C(F)(F)F)c2)ccc1O [Compound 27] |  |  | IC50 [2]: 0.044 µM; IC50 [3]: 6.25 µM; IC50 [4, 7]: 109 µM

Row | SMILES | IC50 ([2]; Neuron) [µM] | IC50 ([3]; Mus musculus) [µM] | also measured
20 | CCOc1ccc(CCNc2ccc(O)c(C(=O)O)c2)cc1 [Compound 29] | 0.18 | 42.2 | 
21 | Cc1cccc(CCNc2ccc(O)c(C(=O)O)c2)c1 [Compound 30] | 0.39 | 23.6 | IC50 (uM) C: suppressing effect on production of beta-amyloid [4, 6]: No
22 | O=C(O)c1cc(NCCc2ccc(F)cc2C(F)(F)F)ccc1O [Compound 31] | 0.25 | 4.08 | 
23 | O=C(O)c1cc(NCCCc2ccccc2)ccc1O [Compound 32] | 0.29 | 85.4 | 
24 | O=C(O)c1cc(NCCc2ccc(F)c(C(F)(F)F)c2)ccc1O [Compound 33] |  |  | IC50 [2]: 0.036 µM; IC50 [3]: 31.1 µM; IC50 [4, 7]: > 100 µM
25 | O=C(O)c1cc(NCCc2cc(F)cc(C(F)(F)F)c2)ccc1O [Compound 34] | 0.13 | 98.8 | IC50 (uM) C: suppressing effect on production of beta-amyloid [4, 6]: No
26 | O=C(O)c1cc(NCCc2cc(F)ccc2C(F)(F)F)ccc1O [Compound 37] | 0.27 | > 100 | 
27 | O=C(O)c1cc(NCCc2ccc(F)cc2)ccc1O [Compound 39] | 0.31 |  | IC50 (uM) B: suppressing effect on production of NO [3]: No
28 | O=C(O)c1cc(NCCCc2ccc(C(F)(F)F)cc2)ccc1O [Compound 42] | 0.062 | 6.7 | IC50 [4, 5]: 68.3 µM
29 | O=C(O)c1cc(NCCc2ccc(O)cc2)ccc1O [Compound 47] |  |  | IC50 [2]: 0.32 µM; IC50 [3]: 11.5 µM
30 | O=C(O)c1cc(NCc2ccc(F)cc2)ccc1O [FBAS] |  |  | IC50 [1]: 0.3 µM
31 | COc1ccc(CNc2ccc(O)c(C(=O)O)c2)cc1 [MBAS, 5-(4-methoxybenzyl)aminosalicylic acid] |  |  | IC50 ([1]; Mus musculus, Neuron): 1.42 µM
32 | O=C(O)c1cc(NCc2ccc([N+](=O)[O-])cc2)ccc1O [NBAS, 5-(4-nitrobenzyl)aminosalicylic acid] |  |  | IC50 ([1]; Mus musculus, Neuron): 1.9 µM
33 | O=C(O)c1cc(NCCc2ccc([N+](=O)[O-])cc2)ccc1O [NPAA, 5-[2-(4-nitrophenyl)-ethyl]aminosalicylic acid] |  |  | IC50 ([1]; Mus musculus, Neuron): 0.27 µM
34 | O=C(O)c1cc(NCCc2ccc(OC(F)(F)F)cc2)ccc1O [chemical 16, 2-Hydroxy-5-[2-(4-trifluoromethoxy-phenyl)-ethylamino]-benzoic acid] |  |  | IC50 [4, 8]: 67.5 µM
35 | O=C(O)c1cc(NCCc2ccc(F)c(F)c2)ccc1O [chemical 21, 5-[2-(3,4-Difluoro-phenyl)-ethylamino]-2-hydroxy-benzoic acid] |  |  | IC50 [4, 8]: 68 µM
36 | O=C(O)c1cc(NCCc2ccc(Cl)cc2Cl)ccc1O [chemical 24, 5-[2-(2,4-Dichloro-phenyl)-ethylamino]-2-hydroxy-benzoic acid] |  |  | IC50 [4, 8]: 29.2 µM
37 | O=C(O)c1cc(NCCCc2ccc(Cl)c(Cl)c2)ccc1O [chemical 43, 5-[3-(3,4-Dichloro-phenyl)-propylamino]-2-hydroxy-benzoic acid] |  |  | IC50 [4, 8]: 111 µM

Continued, in another order:

Row | IC50 ([2]; Neuron) [µM] | IC50 ([3]; Mus musculus) [µM] | SMILES | also measured
38 | 0.1 | 33 | O=C(O)c1cc(NCCc2ccccc2C(F)(F)F)ccc1O [Compound 03] | 
39 | 0.11 | 60.3 | COc1ccc(CCNc2ccc(O)c(C(=O)O)c2)cc1 [Compound 05] | 
40 | 0.11 | 60.8 | O=C(O)c1cc(NCCc2ccccc2Cl)ccc1O [Compound 07] | IC50 [4, 5]: 19.1 µM
41 | 0.11 | > 100 | O=C(O)c1cc(NCCc2ccc(Cl)cc2)ccc1O [Compound 14] | 
42 | 0.1 | 63.2 | O=C(O)c1cc(NCCc2ccc(Cl)c(Cl)c2)ccc1O [Compound 18] | 
43 | 0.11 | 34.9 | O=C(O)c1cc(NCCc2ccccc2F)ccc1O [Compound 23] | 
44 | 0.031 | 40.8 | O=C(O)c1cc(NCCc2ccc(Cl)cc2Cl)ccc1O [Compound 24] | IC50 [4, 5]: 29.2 µM
45 | 0.07 | 18.6 | Cc1ccccc1CCNc1ccc(O)c(C(=O)O)c1 [Compound 25] | IC50 (uM) C: suppressing effect on production of beta-amyloid [4, 6]: No
46 | 0.12 | 20.3 | O=C(O)c1cc(NCCCc2ccc(F)cc2)ccc1O [Compound 28] | 
47 | 0.035 | 67.5 | O=C(O)c1cc(NCCCc2ccc(F)c(F)c2)ccc1O [Compound 35] | IC50 [4, 5]: > 100 µM
48 | 0.06 | 99.8 | O=C(O)c1cc(NCCc2ccc(C(F)(F)F)cc2F)ccc1O [Compound 36] | IC50 [4, 5]: > 100 µM
49 | 0.069 | 35 | O=C(O)c1cc(NCCc2cc(C(F)(F)F)ccc2F)ccc1O [Compound 38] | IC50 (uM) C: suppressing effect on production of beta-amyloid [4, 6]: No
50 | 0.073 | > 100 | O=C(O)c1cc(NCCCCc2ccccc2)ccc1O [Compound 40] | IC50 (uM) C: suppressing effect on production of beta-amyloid [4, 6]: No
51 | 0.11 | 26.5 | Cc1ccc(CCCNc2ccc(O)c(C(=O)O)c2)cc1 [Compound 41] | IC50 (uM) C: suppressing effect on production of beta-amyloid [4, 6]: No
52 | 0.04 | 51.8 | O=C(O)c1cc(NCCCc2ccc(Cl)c(Cl)c2)ccc1O [Compound 43] | IC50 [4, 5]: 111 µM
53 | 0.12 | 51 | O=C(O)c1cc(NCCCc2ccc(Cl)cc2Cl)ccc1O [Compound 44] | 
54 | 0.1 | 20.7 | O=C(O)c1cc(NCCc2ccc(C(F)(F)F)c(F)c2)ccc1O [Compound 45] | 
